According to article PMC7358525, “Characterization of PF-6142, a Novel, Non-Catecholamine Dopamine Receptor D1 Agonist, in Murine and Nonhuman Primate Models of Dopaminergic Activation” (Frontiers in Pharmacology, 2020):

Tests used:
[1] = test system: MK-801-disrupted paired-pulse facilitation; test: Paired-pulse facilitation (PPF), CA1/subiculum to mPFC, urethane-anesthetized rat; format: in vivo
Description: (§1) Experiments were performed on n=10 adult male Sprague-Dawley rats (275–305 g) under urethane anesthesia (1.5 g/kg, i.p.). The femoral vein was cannulated for i.v. administration of drugs. A stimulation electrode was placed in the CA1/subiculum region (coordinates: A-P = +6.3 mm, M–L = +5.2 mm, D-V = +8.0 mm) using stereotactic methods and unilateral local field potential (LFP) was recorded by a metal monopolar macroelectrode placed into the medial PFC (mPFC; coordinates: A-P = +3.0 mm, M-L = +0.6 mm, D-V = +5.0 mm). […] Evoked responses to the first and the second stimuli were identified (P1 and P2, respectively) and the amount of PPF determined by the formula: (P2 amplitude/P1 amplitude). Waveform averages used to calculate PPF consisted of 60 consecutive stimuli. Five minutes were allowed between administration of each drug dose and the starting of the subsequent average of each 10-min period after each cumulative dose (0.1–1 mg/kg, IV). Disruption in power of LFP delta activity was measured as the percentage of power in low frequency (0–1.8 Hz) irregular activity in the total (0–4 Hz) delta power range. LFP power spectra were determined during periods concurrent with waveform averages and PPF calculation. Statistical significance was determined by means of two-tailed paired Student’s t-test.

[2] = Plasma exposure (PK), mouse; format: in vivo; conditions: 5.6 mg/kg SC, 1 h
Description: Across the set of experiments, PK was either collected from satellite animals or in separate, dedicated studies. In addition to plasma PK, exposures were obtained in brain tissue for rat and mouse, and plasma protein binding and brain tissue binding were measured. Using the measured exposures, partitioning, and binding parameters, and the […]

[3] = test system: ketamine-induced working memory deficits; test: Ketamine-disrupted radial arm maze (RAM); format: in vivo, rat; conditions: 0.01, 0.056, 0.178, 0.56 mg/kg s.c., 90 min before ketamine 10 mg/kg
From the text: Two cohorts of adult male Long-Evans rats (N=30 each) were trained in a spatial working memory task on an eight-arm RAM, (Pathfinder Maze System, Lafayette Instrument Co., Lafayette, IN), using a procedure adapted from [Ward et al. (1990)] and described in detail in [Strick et al. (2011)]. Briefly, rats were food-restricted to provide motivation to perform the RAM task. The task requires that the animals enter each arm to retrieve a reinforcement food pellets, using spatial cues in the room to remember which arms of the maze they have previously entered. Rats were individually placed on the maze and allowed to navigate until all eight arms were entered and the pellets were consumed or until 30 choices were made, or until 5 min had elapsed. Entry into an arm previously entered was counted as an error. […] Training continued until all animals had reached the training criterion, defined as two or fewer errors on two consecutive days. […] Performance on the maze was evaluated 30 min later by an observer that was blinded to treatments.
The R 3.0.1 statistical software was used to compare the error rate data. The effects of treatment and the interaction on the error rate were assessed using a one-way mixed model ANOVA using generalized least squares method from lme4 library. […]

[4] = test system: prepulse inhibition of startle; test: Mouse prepulse inhibition (PPI) and acoustic startle; format: in vivo
Description: Drug and behaviorally naïve adult male C57BL/6J mice (9–11 weeks of age; n=8 per dose group) were used for PPI experiments. Subjects were tested individually in SR-Lab acoustic startle chambers (San Diego Instruments, San Diego CA, USA) equipped with a restrainer mounted atop a piezoelectric accelerometer which measured transduced movement in response to the presentation of audio stimuli presented through a speaker mounted 20 cm above the animal. Subjects were acclimated to an anteroom adjacent to the testing room at minimum 60 min prior to testing. Test sessions began with a 5 min acclimation period to background noise (65 dB) followed by presentation of six randomized repetitions of the 120 dB startle stimulus (40 ms duration) presented alone or paired in combination with a pre-pulse stimulus of 68, 72, or 74 db (20 msec in duration) presented 80 msec prior to the 120 dB startle stimulus, which was equivalent to +3, +7, and +9 db over background noise, respectively. Data were also recorded for no stimulus values to evaluate background level of response. The inter-trial interval between stimulus presentations was randomized and ranged from 10 to 20 s. Test compounds were administered 30 min (s.c.) prior to testing. […] Percent PPI was calculated for each individual subject as the relative change in the 120 dB startle response in the presence of each prepulse intensity using the formula: 100-((prepulse-pulse)/pulse)*100 as previously described ([Ralph-Williams et al., 2003]).
The experiment was analyzed using a two-way mixed model ANOVA (lme4 library in R software). The model included prepulse stimulus intensity levels, treatment (as all combinations of pre-treatment and treatment), and their interaction as fixed factors and random intercept, random slope for each animal as random factors. […] In order to adjust for multiple hypothesis testing we used false discover rate method which controls the expected proportion of false discoveries among the rejected hypotheses. For all statistical tests, p < 0.05 between groups was considered significant.

human D5 receptor = conditions: stated in discussion, no data or reference printed; cited from earlier work
[5] = test system: mPFC low frequency delta activity; test: mPFC low frequency delta field potential oscillation power, anesthetized rat; format: in vivo
Description: as §1

**Q.** Which results are given for Cc1cc(Oc2nccc3occc23)ccc1-c1c(C)ncc2nccn12 [PF-6142]?
**A.** PPF values vs MK-801 challenge ([1]; PF-6142 1.0 mg/kg IV cumulative (p=0.006)): significantly higher PPF values; effect on MK-801-induced changes in PPF after SCH-23390 pretreatment ([1]; PF-6142 1.0-3.0 mg/kg IV cumulative (3 mg/kg: p=0.89)): no significant effect; ED50 for reversal of MK-801-induced effects on PPF ([1]; cumulative IV, Spearman-Karber, 95% confidence levels 0.21-0.57 mg/kg, n=5): 0.35 mg/kg; PF-6142 plasma concentration [2]: 332 ng/mL; ketamine-induced error rate in RAM [3]: decreased the ketamine-induced error rate at all, except for the lowest dose administered; effect on %PPI in combination with risperidone ([4]; PF-6142 1.78 mg/kg + risperidone, 3, 7, 9 dB prepulse): no effect; %PPI vs vehicle ([4]; PF-6142 1.78 mg/kg alone, significant only at 9 dB prepulse intensity (p=0.029)): modest impairments in %PPI; % PPI, PF-6142 alone (pilot experiments, Figure 4C) ([4]; adult C57BL/6J mice): modest non-significant reductions in % PPI; effect on risperidone (0.56 mg/kg)-reduced startle responses ([4]; in the presence of PF-6142): not altered; affinity (human D5 receptor): moderate affinity; MK-801-induced increases in low frequency delta ([5]; PF-6142 0.1-1 mg/kg IV cumulative): dose-dependently reversed; MK-801-induced increases in low frequency delta activity after SCH-23390 pretreatment ([5]; PF-6142 cumulative IV up to 3 mg/kg (p=0.11)): no effect
